Experimental data reported in PubChem BioAssay AID1996.
Values after ≈ are worked out from the molar mass of the structure shown.

Details: buffer; pH 7.4; 200.0 µM

Structure (SMILES) | solubility kinetic
COc1ccccc1C1=NOC(COC(=O)c2ccc([N+](=O)[O-])cc2)C1 (centres undefined) | < 0.4 µg/mL
O=C(O)c1ccccc1C(=O)NCC(O)c1ccccc1 (centres undefined) | > 42.8 µg/mL
O=C(NC(=S)Nc1ccc(O)cc1)c1ccccc1Cl | 20.5 µg/mL (≈ 66.8 µM)
Cc1cc(SCC(=O)Nc2cccnc2Cl)nc2ccccc12 | < 0.2 µg/mL
CN(Cc1ccccc1)C(=O)c1ccc2c(c1)S(=O)(=O)N=C1CCCCCN12 | > 59.6 µg/mL
COc1ccc(C(=O)CSc2nccn2C)cc1 | 35.1 µg/mL (≈ 134 µM)
CC(=O)Nc1ccc(NC(=O)Nc2cccc3ccccc23)cc1 | 1.1 µg/mL (≈ 3.44 µM)
Cc1cc(C)c(C)c(S(=O)(=O)N2CCSCC2)c1C | < 0.6 µg/mL
Cc1cc(C)c(CN2CCC(CO)(CCOc3ccccc3)CC2)cc1C | 38.6 µg/mL (≈ 105 µM)
COc1ccc(C)cc1NC(=O)C1CCN(C(=O)c2ccco2)CC1 | > 51.4 µg/mL
OCCN1CCN(C(=S)Nc2ccc(SC(F)F)cc2)CC1 | > 52.1 µg/mL
CCOc1ccc(CCNC(=O)c2cc(C)on2)cc1OCC | > 47.8 µg/mL
O=C1Nc2ccccc2O/C1=C\c1ccccc1Br | 3.3 µg/mL (≈ 10.4 µM)
O=C(O)c1ccc(NC(=O)C2C3CCC(O3)C2C(=O)O)cc1 (centres undefined) | > 45.8 µg/mL
C=C(C)COc1ccc(C2NC(=O)c3ccccc3O2)cc1OCC (centres undefined) | 1.9 µg/mL (≈ 5.6 µM)
CC(C)NC(NC(=O)/C=C/c1ccccc1)C(Cl)(Cl)Cl (centres undefined) | 44.7 µg/mL (≈ 133 µM)
Nc1cc(OCC(F)(F)F)cc(OCC(F)(F)F)c1 | > 43.4 µg/mL
CC(NC(=O)Nc1ccccc1Cl)c1ccc2c(c1)OCO2 (centres undefined) | < 0.3 µg/mL
CC1(C)C(=O)Nc2ccccc2N1C(=O)CSc1ncccn1 | > 49.3 µg/mL
COc1ccc(OC)c(NC(=O)COC(=O)C2CCCCC2)c1 | 2.9 µg/mL (≈ 9.02 µM)
CCN(C(=S)NCCOC)c1cccc2ccccc12 | 12.9 µg/mL (≈ 44.7 µM)
CCN1CCN(Cc2cc(OC)c3c(c2)OCO3)CC1 | 33.9 µg/mL (≈ 122 µM)
Cc1cccc(/N=C/c2ccccn2)n1 | 27.5 µg/mL (≈ 139 µM)
COC(=O)c1c(C)[nH]c(C(=O)C(C)OC(=O)C2CC2)c1C (centres undefined) | 39.7 µg/mL (≈ 135 µM)

Structure (SMILES) | solubility kinetic
O=C(NCc1ccccc1Br)c1ccncc1 | 39.9 µg/mL (≈ 137 µM)
COc1ccc(/C=C/C(=O)NC(CCSC)C(=O)O)cc1 (centres undefined) | > 46.4 µg/mL
CN(C(=O)c1ccc(Br)o1)C1CCS(=O)(=O)C1 (centres undefined) | > 48.3 µg/mL
CCC(C)NCCCOc1ccc(C)cc1OC (centres undefined) | 35.1 µg/mL (≈ 140 µM)
Cc1cc(C)cc(NC(=O)CN2CCN(c3ccccc3)CC2)c1 | 1.8 µg/mL (≈ 5.57 µM)
CC1CC(C)CN(C(=O)COc2cccnc2[N+](=O)[O-])C1 (centres undefined) | > 44 µg/mL
CC(C)C(=O)Nc1oc(-c2ccccc2)cc1C#N | 10.5 µg/mL (≈ 41.3 µM)
COc1ccc(CCNC(=O)COC(=O)Cc2ccccc2F)cc1 | > 51.8 µg/mL
Cn1cc(CC(=O)NCc2ccc(F)cc2)c2ccccc21 | > 44.5 µg/mL
Cc1cc(C)cc(NC(=O)CN2C(=O)c3ccccc3C2=O)c1 | 0.5 µg/mL (≈ 1.62 µM)
CN(C(=O)COC(=O)c1cncc(Br)c1)C1CCCCC1 | > 53.3 µg/mL
COc1ccc(C(=O)NCCNC(=O)c2ccc(OC)cc2)cc1 | 2.9 µg/mL (≈ 8.83 µM)
O=C(O)CNS(=O)(=O)Cc1ccccc1 | 29 µg/mL (≈ 126 µM)
CC1CCCC(C)N1C(=O)COC(=O)CCC(=O)c1ccc(F)cc1 (centres undefined) | > 52.4 µg/mL
Cc1csc(NC(=O)CSc2nncs2)n1 | > 40.9 µg/mL
O=C(COC(=O)CNC(=O)C1CCCCC1)NCc1ccccc1 | > 49.9 µg/mL
Cc1ccc(CC(=O)Nc2cc(C)ccn2)cc1 | > 36 µg/mL
COc1cc(OC)cc(C(=O)OCC(=O)N2CCCC2)c1 | > 44 µg/mL
Nc1ccccc1C(=O)NC1CCCCNC1=O (centres undefined) | > 37.1 µg/mL
Cc1cc(=O)c(C(=O)O)nn1-c1cccc(C(F)(F)F)c1 | > 44.7 µg/mL
Cn1c(N)c(C(C[N+](=O)[O-])c2c(F)cccc2Cl)c(=O)n(C)c1=O (centres undefined) | > 53.5 µg/mL
O=C(c1c(F)cccc1F)N1CCCC1 | > 31.7 µg/mL
CCOc1ccccc1CN1CCN(Cc2ccon2)CC1CCO (centres undefined) | 48.9 µg/mL (≈ 142 µM)
CC(C)c1ccc(OCC(=O)NC(C)c2ccccc2)cc1 (centres undefined) | 16.5 µg/mL (≈ 55.5 µM)

Structure (SMILES) | solubility kinetic
CC12CC3(C)CC(C)(C1)CC(C(=O)NCc1ccccn1)(C2)C3 | 42.4 µg/mL (≈ 136 µM)
Cn1c(SCC(N)=O)nnc1-c1ccc(C(C)(C)C)cc1 | > 45.7 µg/mL
COc1ccc(OC)c(S(=O)(=O)N2CCc3ccccc3C2)c1 | 22.1 µg/mL (≈ 66.3 µM)
Cn1c(N)c(C(=O)COC(=O)Cc2ccc(Cl)c(Cl)c2)c(=O)n(C)c1=O | 25.7 µg/mL (≈ 64.2 µM)
COc1ccc(Cl)cc1N=Cc1c(O)c2ccccc2oc1=O | < 0.7 µg/mL
Cc1ccc(OCC(=O)Nc2cccc3ccccc23)c([N+](=O)[O-])n1 | 31.5 µg/mL (≈ 93.4 µM)
O=C(CCc1ccc(O)c(O)c1)N/N=C/c1ccc2c(c1)OCO2 | > 49.2 µg/mL
CC(C)(C)c1cc(NS(=O)(=O)c2cccs2)no1 | 30.8 µg/mL (≈ 108 µM)
O=C(c1c(Cl)cccc1Cl)N1CCN(c2cccc3[nH]ccc23)CC1 | 4.8 µg/mL (≈ 12.8 µM)
O=C(Cc1c(F)cccc1Cl)NCCc1c[nH]c2ccccc12 | 4.8 µg/mL (≈ 14.5 µM)
COc1cc(OC)cc(C(=O)Nc2cccc3nc(C)ccc23)c1 | 2.9 µg/mL (≈ 9 µM)
COc1ccc(/C(C)=N/N2C(C)CCCC2C)c(OC)c1 (centres undefined) | > 43.6 µg/mL
O=C(Cc1ccccc1)OCC(=O)c1cccc([N+](=O)[O-])c1 | > 44.9 µg/mL
CC(=O)Nc1ccc(S(=O)(=O)N2c3ccc(F)cc3CCC2C)cc1 (centres undefined) | 45.9 µg/mL (≈ 127 µM)
COc1ccc2nc(C)cc(N3CCN(c4ccccc4)CC3)c2c1 | 2.7 µg/mL (≈ 8.1 µM)
O=C(Nc1cccnc1)OCc1ccccc1 | 23 µg/mL (≈ 101 µM)
O=C1/C(=C\c2ccc(O)c(O)c2)N=C2CCCCCN12 | > 40.8 µg/mL
CCC(Oc1ccc(C)cc1)C(=O)Nc1ccc2c(c1)n(C)c(=O)n2C (centres undefined) | > 53 µg/mL
C=CCN(CC=C)C(=S)NC(=O)c1ccc(OC)cc1 | > 43.6 µg/mL
CCOC(=O)N1CCN(C(=O)Cc2ccccc2OC)CC1 | > 46 µg/mL
Nc1ccc(C(=O)OCc2ccncc2)cc1[N+](=O)[O-] | 14 µg/mL (≈ 51.2 µM)
COCCn1c(-c2ccc(F)cc2)nc2oc3cc(OC)ccc3c(=O)c2c1=O | 21.1 µg/mL (≈ 53.2 µM)
Cc1ccccc1S(=O)Cc1ccc(C(=O)NC2CC2)o1 (centres undefined) | > 45.5 µg/mL
COC(=O)c1nn(-c2cccc(Cl)c2)cc(OC)c1=O | > 44.2 µg/mL

Structure (SMILES) | solubility kinetic
Cc1c(C)[n+](=O)c2c(n1[O-])C(Br)CCC2Br (centres undefined) | > 52.8 µg/mL
CCS(=O)(=O)N1CCC(C(=O)NCc2ccc(OC)cc2)CC1 | > 51.1 µg/mL
O=C(Nc1ccc2nccnc2c1)c1ccco1 | > 35.9 µg/mL
CC(C)CN(CC(C)C)C(=O)COc1ccccc1C(N)=O | > 46 µg/mL
O=C(NCc1ccccc1)C1CC(=O)N(C2CCCCCC2)C1 (centres undefined) | > 47.2 µg/mL
O=C(C(=O)N1CCN(c2ccccc2)CC1)c1c[nH]c2ccccc12 | 2 µg/mL (≈ 6 µM)
O=Cc1c(NCc2cccc(F)c2)c2ccccc2[nH]c1=O | 19.8 µg/mL (≈ 66.8 µM)
Cc1ccc(S(=O)(=O)NCc2ccccn2)c(C)c1 | > 41.5 µg/mL
CC(C)N1CCN(C(=O)c2ccc([N+](=O)[O-])cc2)CC1 | 27.3 µg/mL (≈ 98.4 µM)
COc1ccc(C(=O)CSc2nnc3ccccn23)cc1OC | > 49.4 µg/mL
Cc1ccccc1OCC(=O)OCC(=O)NCC1CCCCC1 | 7.6 µg/mL (≈ 23.8 µM)
CC(NC(=O)CN1C(=O)NC2(CCCCCCC2)C1=O)c1ccccc1 (centres undefined) | > 53.6 µg/mL
CCOc1cc(N2CCOCC2)c(OCC)cc1NC(=O)Cn1cnnn1 | > 56.5 µg/mL
CC1SC(=S)N(c2ccc(N(C)C)cc2)C1=O (centres undefined) | 5.7 µg/mL (≈ 21.4 µM)
CCCOc1ccc(C(=O)NCCC(=O)NCCCC(=O)O)cc1 | > 50.5 µg/mL
COc1ccc(OCC(O)CN2C(=O)c3ccccc3C2=O)cc1 (centres undefined) | > 49.1 µg/mL
Cc1ccc(O)c(CO)n1 | > 20.9 µg/mL
O=C(COC(=O)/C=C/c1ccccc1[N+](=O)[O-])NC1CC1 | > 43.5 µg/mL
CC(C)(C)c1ccc(S(=O)(=O)N2CCNC(=O)C2)cc1 | 42 µg/mL (≈ 142 µM)
O=C(CN1C(=O)CSc2ncccc21)Nc1ccccc1F | > 47.6 µg/mL
NC(=O)c1ccc(OCC(=O)N2CCNC2=O)cc1 | > 39.5 µg/mL
Nc1ncnc2nc(SCCC(=O)O)[nH]c12 | > 35.9 µg/mL
Cc1cccc(-c2onc3ccc(C(=O)/C=C/N(C)C)cc23)c1 | 3.3 µg/mL (≈ 10.8 µM)
CCN1CCN(S(=O)(=O)c2c(C)cc(C)cc2C)CC1 | > 44.5 µg/mL

Structure (SMILES) | solubility kinetic
O=C(COC(=O)COc1ccccc1F)Nc1cccc(S(=O)(=O)N2CCCCC2)c1 | 47.8 µg/mL (≈ 106 µM)
O=C(NCCCn1ccnc1)c1ccc(C(F)(F)F)cc1 | > 44.6 µg/mL
Cc1nc2sccn2c(=O)c1CCN1CCC(=C(c2ccc(F)cc2)c2ccc(F)cc2)CC1 | 12.2 µg/mL (≈ 25.5 µM)
COc1ccc(C(=O)OCC(=O)c2ccc3[nH]c(=O)[nH]c3c2)c(OC)c1OC | 20.3 µg/mL (≈ 52.5 µM)
OCCc1c[nH]c2ccc(OCc3ccccc3)cc12 | 24.8 µg/mL (≈ 92.8 µM)
O=C(c1cccnc1Cl)N(Cc1ccccc1)Cc1ccccc1 | 39.5 µg/mL (≈ 117 µM)
O=C(CCc1nnc(C2CCCCC2)o1)NCc1ccc(F)c(F)c1 | > 52.4 µg/mL
CCOC(=O)c1sc(SC)c2c1CCC/C2=N/OC | 0.7 µg/mL (≈ 2.34 µM)
Cc1cc(OCC(=O)Nc2ccncc2)cc(C)c1Cl | 2.9 µg/mL (≈ 9.97 µM)
Cc1ccc(CN(C)CC(=O)Nc2ccc3c(c2)CCC3)cc1 | 5.4 µg/mL (≈ 17.5 µM)
Cl.O=C(/C=C/c1ccco1)OCC1CCCN2CCCCC12 (centres undefined) | > 48.9 µg/mL
CCN(C(=O)Cn1c(=O)oc2ccccc21)c1cccc(C)c1 | > 46.6 µg/mL
CS(=O)(=O)c1ccccc1C(=O)NC1CCCc2ccccc21 (centres undefined) | > 49.4 µg/mL
CN(c1ccccc1)c1nc(N)c([N+](=O)[O-])c(NCc2ccccc2)n1 | < 0.1 µg/mL
COc1ccc(CCN2CC(C(=O)NCC(c3ccccc3)N(C)C)CC2=O)cc1OC (centres undefined) | > 65.9 µg/mL
CCc1ccc(C(=O)Nc2cccnc2Oc2ccc(Cl)cc2)cc1 | 1.5 µg/mL (≈ 4.25 µM)
CC(C)[C@H](NC(=O)c1ccccc1)C(=O)OCC(=O)Nc1ccc(S(=O)(=O)N2CCOCC2)cc1 | 3 µg/mL (≈ 5.96 µM)
CC1CCN(C(=O)COC(=O)c2ccccc2C(=O)c2ccccc2)CC1 | > 54.8 µg/mL
Cc1ccc(-n2c(C)c([N+](=O)[O-])c3ccc(O)cc32)cc1 | 0.4 µg/mL (≈ 1.42 µM)
Cc1onc(-c2ccccc2)c1C(=O)N1CCCCCC1 | > 42.7 µg/mL
CC(C)Oc1ccc(C(=O)Nc2cccc(S(=O)(=O)N3CCCC3)c2)cc1 | 8.5 µg/mL (≈ 21.9 µM)
Cc1cc(C(=O)NC(C)C2CCCO2)no1 (centres undefined) | > 33.6 µg/mL
COc1ccc(Cl)cc1NC(=S)NCc1cccnc1 | > 46.2 µg/mL
